From patent US20230015647A1, “INHIBITORS OF HISTONE DEMETHYLASES (PFI-63 AND PFI-90) FOR THE TREATMENT OF CANCER AND FOR THE INHIBITION OF HISTONE DEMETHYLASE IN CELLS” (The United States of America,as represented by the …, priority 2019, published 2023)
Entries after “also recorded” stand apart in the source; their conditions may differ.

Legend:
[1] = test system: PAX3-FOXO1 fusion transcription factor; test: RH4 ALK-Luc luciferase reporter assay (PAX3-FOXO1 super enhancer activity); type: cell-based, human; conditions: RH4 ALK-Luc reporter
Description: The screen was performed using two derivatives of RH4 FP-RMS cells: • (1) “ALK-Luc cells”—RH4 cells expressing a pGreenFire green fluorescent protein (GFP)-luciferase reporter (SEQ ID NO: 1) controlled by the PAX3-FOXO1-dependent intronic ALK super enhancer (for reporting on PAX3-FOXO1 activity) (FIGS. 1 and 2); and • (2) “CMV-Luc cells”—control RH4 cells in which the reporter is transcribed from a constitutively active cytomegalovirus (CMV) promoter. An Example of visualization via the ALK-Luc reporter is depicted in FIG. 3.
The cells were enriched for reporter expression levels and used for assay development. A high throughput screening assay was developed after optimization of cell seeding density, length of incubation of cells prior to and post treatment with test compounds, and effect of passaging among other factors. The screen was designed to identify compounds that suppressed PAX3-FOXO1 activity without disrupting viability (at a short time points) or general transcription. The assay simultaneously monitors the function of the PAX3-FOXO1 super enhancer (also referred to as “ALK super enhancer”), general transcriptional activity as well as cell viability.
The visual summary of the screening strategy is illustrated in FIG. 4. ALK-Luc cells were seeded in both white-walled and white-bottomed 384-well plates (Perkin Elmer, Cat #6007658) for luciferase assays and in clear 384-well plates (Perkin Elmer, Cat #6007688) for viability assay (XTT reduction) by transferring 27 μL of cell suspensions (seeding 3000 cells per well) into each well. The plates were then transferred into an incubator for 18-20 h. The CMV-Luc cells were similarly seeded into white plates and incubated.
A pure compound library of 62,643 compounds consisting of synthetic and natural products described previously (Grohar et al., J Natl. Cancer Inst., 103: 962-978 (2011)) was then used in a high throughput screening campaign to identify inhibitors of PAX3-FOXO1. Stock DMSO Solutions of these compounds were used to prepare 100 μM solutions in growth medium in 384-well plates also containing 16 wells each of a positive control (Actinomycin D, Sigma, Cat #A1410) and negative control (DMSO). Screening compounds along with the positive and negative controls were added to assay plates by transferring 3 μL of the prepared 100 μM dilutions using an automated liquid handler (Agilent, Bravo). Treated plates were incubated for 24 h. At the end of this period, treated plates were allowed to equilibrate to room temperature for 30 minutes. SteadyLite Plus luciferase assay reagent powder (PerkinElmer, Cat #6066759) was reconstituted in its buffer in parallel and was also allowed to equilibrate to room temperature.
After transferring 30 μL of the luciferase assay reagent using a liquid handler, plates were further incubated at room temperature for 10 minutes. Finally, luminescence measurements were carried out using a multi-label microplate reader (BMG, Pherastar FSX) set in luminescence mode. Cell viability was assessed by adding XTT reagent (10 μL per well) in clear plates containing treated ALK-Luc cells. XTT treated plates were read using a plate reader in absorbance mode at 450 nm (PerkinElmer, Envision) after further incubation for 1 hour to allow cells to metabolize XTT to a colored formazan product. Luminescence and XTT absorbance values were normalized to the average of the negative controls on each plate and were calculated as a percentage of these controls. Performance of the screening assay was routinely monitored via calculation of Z-factor (Zhang et al., J. Biomol. Screen., 4: 67-73 (1999)) with Z′ for all plates found to be >0.7.
RH4 ALK-Luc and RH4 CMV-Luc cells were seeded into separate white-walled and bottomed 384-well plates and were incubated and treated with screen hits and epigenome compounds. The highest test concentration of these compounds (10-fold) were prepared from DMSO stock solutions via dilution in medium. […]

[2] = test system: truncated KDM3B catalytic domain; test: WaterLOGSY NMR binding assay; conditions: 100 μM
From the text: (§1) A WaterLOGSY assay and a Carr-Purcell Meiboom-Gill (CPMG) based assay were used to investigate protein-ligand binding affinity between PFI-90 and a truncated KDM3B catalytic domain.
In traditional proton NMR experiments, a series of peaks are generated that represent the structure of a solitary small molecule, whereas the WaterLOGSY experiment examines the behavior of a small molecule's peaks in the presence of a potential target. This is achieved by observing differences in interaction between a small molecule interacting with water co-occupying a binding cleft on a target as compared to water dispersed freely in solution. The experiment then depicts the ratio of bound to unbound small molecule by phasing proton NMR spectra on the X-axis in opposing directions depending on the magnitude of that ratio (i.e., increasing ratios above 1 will phase positively, decreasing ratios below 1 will phase negatively).

[3] = test system: truncated KDM3B catalytic domain; test: CPMG relaxation editing NMR binding assay; conditions: 100 μM
From the text: as §1
CPMG (Carr-Purcell-Meiboom-Gill) Relaxation Editing Proton NMR is another drug-discovery NMR experiment that may be used in conjunction with WaterLOGSY to orthogonally validate the presence of a reversible binding interaction of mild to high affinity from a small molecule to a label-free target. In contrast to WaterLOGSY, all peaks are phased above the X-axis. Instead, this experiment filters out the proportion of peak height that is contributed from the quantity of small molecule bound to a target of high molecular weight (e.g., a protein). Once the attenuation of peak height is equivalent to a 20% reduction, the compound is said to bind, with an increasing ratio of bound to unbound small molecules manifesting in increasing signal attenuation.

Q: `Cc1cc(C)cc(OCC(=O)NNC(=O)c2ccccn2)c1` [PFI-84] was tested. Which “Avg Absorbance @ 1 μM, ALK-Luc” value [1] did it give?
A: Its value is 99.4.

Q: And the “Avg Absorbance @ 10 μM, ALK-Luc” value [1]?
A: Its value is 56.5.

Q: What does the source list for `CCCC(=O)NNC(=O)c1ccccn1` [PFI-74]?
A: Avg Absorbance @ 1 μM, ALK-Luc [1]: 102.4; Avg Absorbance @ 10 μM, ALK-Luc [1]: 94.7

Q: Which results are given for `Cc1nc(C)c(C(=O)NN)cc1C(=O)NN` [PFI-78]?
A: Avg Absorbance @ 1 μM, ALK-Luc [1]: 100.3; Avg Absorbance @ 10 μM, ALK-Luc [1]: 95.3

Q: How did the “Avg Absorbance @ 1 μM, ALK-Luc” value [1] turn out when `Cc1nc(C)c(C(=O)NNC(=O)c2ccccc2)cc1C(=O)NNC(=O)c1ccccc1` [PFI-75] was run?
A: The value was 100.2.

Q: What about the “Avg Absorbance @ 10 μM, ALK-Luc” value [1] of the same compound?
A: The value was 110.5.

Q: Which “Avg Absorbance @ 1 μM, ALK-Luc” value [1] does the source give for `CC(C)CC(=O)NNC(=O)c1ccco1` [PFI-89] here?
A: The value was 95.1.

Q: And the “Avg Absorbance @ 10 μM, ALK-Luc” value [1]?
A: Its value is 92.5.

Q: Which results are given for `CS(=O)(=O)NCCc1ccc(C(=O)NNC(=O)c2ccccn2)cc1` [PFI-85]?
A: Avg Absorbance @ 1 μM, ALK-Luc [1]: 99.7; Avg Absorbance @ 10 μM, ALK-Luc [1]: 100.2

Q: Which results are given for `CC(=O)NNC(=O)c1ccccn1` [PFI-68]?
A: Avg Absorbance @ 1 μM, ALK-Luc [1]: 95.0; Avg Absorbance @ 10 μM, ALK-Luc [1]: 98.0

Q: What does the source list for `Cc1cccc(C(=O)NNC(=O)c2cccc(C)c2)c1` [PFI-67]?
A: Avg Absorbance @ 1 μM, ALK-Luc [1]: 94.6; Avg Absorbance @ 10 μM, ALK-Luc [1]: 112.8

Q: Which results are given for `COCc1cccc(C(=O)NNC(=O)c2ccccn2)c1` [PFI-87]?
A: Avg Absorbance @ 1 μM, ALK-Luc [1]: 115.5; Avg Absorbance @ 10 μM, ALK-Luc [1]: 120.4

Q: What does the source list for `CC(=O)NNC(=O)c1ccc2ccccc2n1` [PFI-80]?
A: Avg Absorbance @ 1 μM, ALK-Luc [1]: 90.1; Avg Absorbance @ 10 μM, ALK-Luc [1]: 96.6

Q: With `NNC(=O)c1ccc(C(=O)NN)o1` [PFI-79] as the compound, how does the “Avg Absorbance @ 1 μM, ALK-Luc” value [1] read?
A: The value was 97.0.

Q: And the “Avg Absorbance @ 10 μM, ALK-Luc” value [1]?
A: Its value is 97.6.

Q: Which results are given for `NNC(=O)c1cccc(C(=O)NN)n1` [PFI-66]?
A: Avg Absorbance @ 1 μM, ALK-Luc [1]: 91.6; Avg Absorbance @ 10 μM, ALK-Luc [1]: 91.3

Q: `CCC(CC)C(=O)NNC(=O)c1ccccn1` [PFI-81] was tested. Which “Avg Absorbance @ 1 μM, ALK-Luc” value [1] did it give?
A: Its value is 97.7.

Q: What about the “Avg Absorbance @ 10 μM, ALK-Luc” value [1] of the same compound?
A: The value was 89.1.

Q: Which results are given for `Cc1cccc(C(=O)NNC(=O)c2ccccc2)c1` [PFI-73]?
A: Avg Absorbance @ 1 μM, ALK-Luc [1]: 98.3; Avg Absorbance @ 10 μM, ALK-Luc [1]: 122.8

Q: Which results are given for `O=C(NNC(=O)c1ccccn1)c1ccccn1` [PFI-82]?
A: Avg Absorbance @ 1 μM, ALK-Luc [1]: 112.4; Avg Absorbance @ 10 μM, ALK-Luc [1]: 107.1

Q: `Cc1cccc(C(=O)NNC(=O)c2ccccc2)c1` [PFI-88] was tested. Which “Avg Absorbance @ 1 μM, ALK-Luc” value [1] did it give?
A: Its value is 91.6.

Q: What about the “Avg Absorbance @ 10 μM, ALK-Luc” value [1] of the same compound?
A: The value was 121.4.

Q: `CCC(=O)NNC(=O)c1ccccn1` [PFI-69] was tested. Which “Avg Absorbance @ 1 μM, ALK-Luc” value [1] did it give?
A: Its value is 104.3.

Q: What about the “Avg Absorbance @ 10 μM, ALK-Luc” value [1] of the same compound?
A: The value was 94.4.

Q: `O=C(NNC(=O)c1cccc(C(=O)NNC(=O)c2ccc(Cl)c(Cl)c2)n1)c1ccc(Cl)c(Cl)c1` [PFI-72] was tested. Which “Avg Absorbance @ 10 μM, ALK-Luc” value [1] did it give?
A: The value was 91.1.

Q: For `O=C(Cc1ccc(Cl)cc1)NNC(=O)c1ccccn1` [PFI-83], which “Avg Absorbance @ 1 μM, ALK-Luc” value [1] is on record?
A: The value was 97.8.

Q: What about the “Avg Absorbance @ 10 μM, ALK-Luc” value [1] of the same compound?
A: Its value is 32.2.

Q: `O=C(NNC(=O)c1ccccn1)c1ccccc1` [PFI-65] was tested. Which “Avg Absorbance @ 1 μM, ALK-Luc” value [1] did it give?
A: The value was 103.5.

Q: And the “Avg Absorbance @ 10 μM, ALK-Luc” value [1]?
A: Its value is 109.2.

Q: `O=C(O)CCC(=O)C(=O)O` [Compound 2-OG, 2-oxoglutaric acid, reference compound] was tested. Which “binding (WaterLOGSY)” value [2] did it give?
A: The value was “did not bind; also recorded: does not bind”.

Q: What about the “binding (CPMG)” value [3] of the same compound?
A: Its value is “did not bind; also recorded: does not bind”.

Q: Which results are given for `O=CNNC(=O)c1ccccn1` [PFI-70]?
A: Avg Absorbance @ 1 μM, ALK-Luc [1]: 99.7; Avg Absorbance @ 10 μM, ALK-Luc [1]: 93.3

Q: For `Cc1cc(C)cc(C(=O)NNC(=O)c2ccc(O)cc2)c1` [PFI-86], which “Avg Absorbance @ 1 μM, ALK-Luc” value [1] is on record?
A: Its value is 97.7.

Q: What about the “Avg Absorbance @ 10 μM, ALK-Luc” value [1] of the same compound?
A: The value was 84.1.

Q: `CC(=O)NNC(=O)c1cnccn1` [PFI-76] was tested. Which “Avg Absorbance @ 1 μM, ALK-Luc” value [1] did it give?
A: The value was 105.6.

Q: And the “Avg Absorbance @ 10 μM, ALK-Luc” value [1]?
A: Its value is 100.2.

Q: Which “Avg Absorbance @ 1 μM, ALK-Luc” value [1] does the source give for `NNC(=O)c1ccc(C(=O)NN)nc1` [PFI-71] here?
A: The value was 100.1.

Q: And the “Avg Absorbance @ 10 μM, ALK-Luc” value [1]?
A: The value was 108.6.

Q: Which “Avg Absorbance @ 1 μM, ALK-Luc” value [1] does the source give for `O=CNNC(=O)c1cnccn1` [PFI-77] here?
A: The value was 95.8.

Q: And the “Avg Absorbance @ 10 μM, ALK-Luc” value [1]?
A: The value was 96.5.
